Test results taken from publication PMC12371494, “Discovery of YTHDF2 Ligands by Fragment-Based Design” (ACS Bio & Med Chem Au, 2025).
Read-outs that look alike come from different tables or passages of the source.

What was measured:
GST-YTHDF3 = target: T1, GST-YTHDF3 (Homo sapiens, UniProt Q7Z739); experiment: HTRF-based binding assay, DF3; details: for Single-dose residual signal at 100 µM, DF3: 100 µM compound, normalized; for IC50: dose-response
T1 construct: made in house
T1 sequence (Q7Z739 1-585): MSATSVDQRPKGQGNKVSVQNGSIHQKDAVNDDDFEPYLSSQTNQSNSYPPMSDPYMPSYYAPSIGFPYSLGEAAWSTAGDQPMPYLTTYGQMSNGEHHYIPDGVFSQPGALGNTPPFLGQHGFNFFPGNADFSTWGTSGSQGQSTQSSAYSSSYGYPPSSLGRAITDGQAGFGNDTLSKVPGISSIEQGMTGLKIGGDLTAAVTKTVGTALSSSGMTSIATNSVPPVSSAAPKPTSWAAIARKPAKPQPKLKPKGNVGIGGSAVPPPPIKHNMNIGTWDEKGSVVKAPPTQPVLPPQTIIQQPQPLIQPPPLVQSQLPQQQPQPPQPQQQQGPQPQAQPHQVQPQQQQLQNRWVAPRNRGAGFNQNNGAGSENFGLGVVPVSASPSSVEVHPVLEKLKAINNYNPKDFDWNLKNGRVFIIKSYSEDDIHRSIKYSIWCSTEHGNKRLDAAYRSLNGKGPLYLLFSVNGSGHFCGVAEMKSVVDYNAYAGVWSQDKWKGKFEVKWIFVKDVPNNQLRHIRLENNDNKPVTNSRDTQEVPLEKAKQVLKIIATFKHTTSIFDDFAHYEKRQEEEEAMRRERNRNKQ
Procedure: The HTRF-based assay was employed to evaluate the selectivity of the series against other DF proteins.
A dose–response experiment on DF1 and DF3 was conducted for compounds 17, 18, 23, and 27 (Figure S5). Compounds 17, 18, and 27 are active on three DF proteins. […] In contrast, compound 23 is selective for DF2, with residual signals (at the highest employed concentration of 62.5 μM) of 51 and 87% for DF1 and DF3, respectively.
GST-YTHDC1, GST-YTHDF1, GST-YTHDF2, and GST-YTHDF3 were purified as previously reported. The HTRF assay was assembled as detailed in ref with the only difference being that the starting concentration of the dose–response experiments used for the IC50 determination was variated dependently from the tested compound. The same protocol was applied to the four proteins. The competitive inhibition data of GST-YTHDF1 (single dose experiment at 100 μM compound concentration and dose–response curves), GST-YTHDF3 (single dose experiment at 100 μM compound concentration and dose–response curves), and GST-YTHDF2 (single dose experiment at 100 μM compound concentration) were normalized as described in ref to mitigate interference. The signal was measured as described in ref .

YTHDF2 = target: T2, YTHDF2 (Homo sapiens, UniProt Q9Y5A9); experiment: DNA-fluorescence polarization (FP) competition assay, DF2; assay type: binding
T2 sequence (Q9Y5A9 1-579): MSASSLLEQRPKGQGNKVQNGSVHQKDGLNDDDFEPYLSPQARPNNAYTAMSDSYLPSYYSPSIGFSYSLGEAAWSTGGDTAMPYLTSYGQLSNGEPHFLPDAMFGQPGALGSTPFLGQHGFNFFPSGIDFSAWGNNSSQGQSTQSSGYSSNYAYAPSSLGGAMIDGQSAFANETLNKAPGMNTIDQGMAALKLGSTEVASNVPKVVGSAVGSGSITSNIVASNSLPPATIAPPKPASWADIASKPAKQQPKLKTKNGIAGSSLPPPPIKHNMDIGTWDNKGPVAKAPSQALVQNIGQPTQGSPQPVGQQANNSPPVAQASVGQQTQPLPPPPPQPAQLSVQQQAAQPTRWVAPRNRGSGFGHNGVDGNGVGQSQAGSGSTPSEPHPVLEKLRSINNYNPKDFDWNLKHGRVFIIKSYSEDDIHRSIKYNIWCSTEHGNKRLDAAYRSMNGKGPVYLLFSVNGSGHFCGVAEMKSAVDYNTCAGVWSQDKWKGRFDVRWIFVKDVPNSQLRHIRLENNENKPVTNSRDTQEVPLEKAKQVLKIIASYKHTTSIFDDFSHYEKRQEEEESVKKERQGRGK
Procedure: An FP competition assay was used to further validate the binding of the compounds to DF2. The main difference with respect to a previously published FP assay is the use of an oligo-DNA as competitor ligand (see Materials and Methods section). […] These differences might originate from the varying conditions in the two assays, such as the competitor mRNA (5′-biotin-[…](m6A)-CUAAGCU-3′) in HTRF and DNA (5′-FAM-[…](m6A)-CTAAGCT-3′) in FP, the salt concentration (150 mM NaCl and 100 mM KF in HTRF, and 150 mM NaCl in FP), and the pH (7.5 in HTRF and 7.4 in FP). The FP-based assay was also employed to assess the selectivity against DC1 and DC2 (see Selectivity section).
(§1) For fluorescence polarization (FP) experiments, a 5′-fluorescein-labeled m^6A-DNA probe (5′-FAM-[…](m6A)-CTAAGCT-3′) was synthesized by Microsynth AG.
(§2) The final concentration of the fluorescein-labeled DNA was kept constant at 3 nM. For YTHDC2 measurements, the protein concentration was set to 25 nM, while for YTHDF2 measurements, it was set to 10 nM, and for YTHDC1, it was set at 15 nM. The compound concentration was serially diluted to obtain the dose–response curve. The competition experiments were conducted in a final volume of 20 μL in a buffer containing 20 mM Tris–HCl (pH 7.4), 150 mM NaCl, and 0.01% bovine serum albumin (BSA), using a 384-well black flat-bottomed microplate (Corning 3575).
(§3) After incubating the mixture for 1 h, the anisotropy values were measured using a Tecan SPARK plate reader with 485/20 nm excitation and 535/25 nm emission polarization filters, suitable for fluorescein, at 25 °C. To obtain the equilibrium dissociation constant (K d), the IC50 values were first derived by fitting a dose–response curve to the data using nonlinear regression analysis in GraphPad Prism. These IC50 values were then converted to K d by using the Cheng–Prusoff equation: Kd=IC50/1+[L]/Kdprobe
(§4) IC50 is the observed value from FP assay, [L] is the probe concentration used, and K d ^probe is the binding affinity of probe for the target.

YTHDC1 = YTHDC1 (Homo sapiens, UniProt Q96MU7); experiment: DNA-fluorescence polarization (FP) competition assay, DC1; assay type: binding; details: for Selectivity DF2 over DC1 (Kd ratio DC1/DF2): FP Kd values
Procedure: The binding affinity for DC1 could not be evaluated by HTRF because of interference of the compounds with the assay, which has a smaller assay window when performed with DC1 compared to the DF proteins. Thus, the FP assay was used to evaluate binding to DC1 and DC2.
as §1, §2, §3, §4

[1] = Cheng-Prusoff from FP IC50, probe Kd 5 nM, two biological replicates

Compound	Single-dose residual signal at 100 µM, DF3 (GST-YTHDF3; HTRF) [%]	Kd (YTHDF2) [µM]	Kd (YTHDC1) [µM]	Selectivity DF2 over DC1 (Kd ratio DC1/DF2) (YTHDC1) [fold]	IC50 (GST-YTHDF3) [µM]	IC50 (YTHDF2; FP IC50 before conversion (Kd = IC50/1.6)) [µM]	Residual signal DF3 at highest concentration (GST-YTHDF3; HTRF, 62.5 μM compound) [%]	Kd (YTHDF2; [1]) [µM]
O=c1[nH]c(=S)[nH]c2sccc12 [Compound 14]	23	3.8	32	~8				
COC(=O)c1ccc(-c2csc3[nH]c(=S)[nH]c(=O)c23)cc1 [Compound 17]	7	1.2	5		21			
O=C(O)c1ccc(-c2csc3[nH]c(=S)[nH]c(=O)c23)cc1 [Compound 18]	19	0.61	6.9		53			
O=c1[nH]c(=S)[nH]c2scc(-c3ccc(O)cc3)c12 [Compound 19]	13	1.3	27			2		
CC(=O)c1sc2[nH]c(=S)[nH]c(=O)c2c1C [Compound 20]	12	3.1	47					
CCOC(=O)c1sc2[nH]c(=S)[nH]c(=O)c2c1C [Compound 21]	10	4.4	36					
Cc1c(C(=O)NCc2ccccc2)sc2[nH]c(=S)[nH]c(=O)c12 [Compound 22]	18	10	92					
Cc1c(C(=O)NCc2cccnc2)sc2[nH]c(=S)[nH]c(=O)c12 [Compound 23]	33	1.3	120	~100	> 60		87	
Cc1c(C(=O)NCc2cccc(C(=O)O)c2)sc2[nH]c(=S)[nH]c(=O)c12 [Compound 24]	12	2.5	24					
Cc1c(C(=O)NCCCC(=O)O)sc2[nH]c(=S)[nH]c(=O)c12 [Compound 25]	26	1.3	32					
Cc1c(-c2ccc([N+](=O)[O-])cc2)sc2[nH]c(=S)[nH]c(=O)c12 [Compound 26]	15	17	61					
Cc1c(-c2ccc(N)cc2)sc2[nH]c(=S)[nH]c(=O)c12 [Compound 27]	5	1.9	14		50			
NC(=O)c1csc2[nH]c(=S)[nH]c(=O)c12 [Compound 31]	36	1.9	40					
O=c1[nH]c(=S)[nH]c2scc(-c3ccc(Br)cc3)c12 [Compound S75]	8							8.8
COc1ccc(-c2csc3[nH]c(=S)[nH]c(=O)c23)cc1 [Compound S76]	12							11
O=c1[nH]c(=S)[nH]c2scc(C3CCCCC3)c12 [Compound S77]	35							5.6
O=c1[nH]c(=S)[nH]c2sc(Cc3ccccc3)cc12 [Compound S85]	35							6.2
CCOC(=O)c1csc2[nH]c(=S)[nH]c(=O)c12 [Compound S89]	16							7.5
O=C(O)c1csc2[nH]c(=S)[nH]c(=O)c12 [Compound S90]	34							10
